Data from patent publication US7435850B2, “Naphthalene compounds” (Les Laboratoires Servier, priority 2006, dated 2008).

How the values were obtained:
MT1 receptor = MT1 receptor (Homo sapiens, UniProt P48039); assay: Melatonin MT1 receptor binding study
Method: (§1) The MT1 or MT2 receptor binding experiments are carried out using 2-[^125 I]-iodomelatonin as reference radioligand. The radioactivity retained is determined using a liquid scintillation counter.
(§2) Competitive binding experiments are then carried out in triplicate using the various test compounds. A range of different concentrations is tested for each compound. The results enable the binding affinities of the compounds tested (Ki) to be determined.

MT2 receptor = biological target: T1, MT2 receptor (Homo sapiens, UniProt P49286); assay: Melatonin MT2 receptor binding study
T1 sequence (P49286 1-362): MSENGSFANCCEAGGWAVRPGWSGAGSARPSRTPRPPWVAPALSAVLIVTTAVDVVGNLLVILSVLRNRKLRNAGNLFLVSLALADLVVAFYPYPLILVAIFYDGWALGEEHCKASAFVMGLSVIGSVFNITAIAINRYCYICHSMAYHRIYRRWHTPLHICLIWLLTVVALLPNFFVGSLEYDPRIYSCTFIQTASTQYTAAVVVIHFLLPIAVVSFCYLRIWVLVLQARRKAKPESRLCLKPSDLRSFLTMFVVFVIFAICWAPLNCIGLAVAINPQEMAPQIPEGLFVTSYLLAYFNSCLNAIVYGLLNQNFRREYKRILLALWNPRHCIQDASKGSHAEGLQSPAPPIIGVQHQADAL
Method: as §1, §2

MT1 receptor, sequence (P48039 whole entry): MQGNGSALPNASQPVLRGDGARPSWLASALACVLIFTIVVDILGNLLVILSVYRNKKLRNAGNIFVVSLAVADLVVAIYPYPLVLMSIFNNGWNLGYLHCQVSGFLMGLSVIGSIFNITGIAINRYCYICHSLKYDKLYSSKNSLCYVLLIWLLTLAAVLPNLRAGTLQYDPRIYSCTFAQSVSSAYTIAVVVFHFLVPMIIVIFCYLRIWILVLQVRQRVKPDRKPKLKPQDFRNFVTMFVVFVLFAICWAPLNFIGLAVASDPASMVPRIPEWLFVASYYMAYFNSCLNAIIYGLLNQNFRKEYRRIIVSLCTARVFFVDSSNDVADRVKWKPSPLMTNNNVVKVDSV

Structure (SMILES): COc1ccc2cccc(C(CO)CNC(=O)CF)c2c1 (centres unmarked) [Example 1, 2-Fluoro-N-[3-hydroxy-2-(7-methoxy-1-naphthyl)propyl]acetamide]
- Ki (MT1 receptor): 4.7 nM
- Ki (MT2 receptor): 0.5 nM
